Columns and labels:
5-HT1A receptor site = conditions: cited from earlier work
dopamine D-2 receptor = molecular target: T1, dopamine D-2 receptor (Rattus norvegicus, UniProt P61169); assay: D-2 Binding (3H-spiroperidol, homogenized limbic brain tissue)
T1 construct: from tissue; host or cells: homogenized limbic brain tissue
Experimental: High affinity for the dopamine D-2 receptor was established by the standard experimental test procedure of Fields, et al., Brain Res., 136, 578 (1977) and Yamamura et al., eds., Neurotransmitter Receptor Binding, Raven Press, N.Y. (1978) wherein homogenized limbic brain tissue is incubated with ^3 H-spiroperidol and various concentrations of test compound, filtered and washed and shaken with Hydrofluor scintillation cocktail (National Diagnostics) and counted in a Packard 460 CD scintillation counter.

[1] = molecular target: T2, serotonin 5-HT1A receptor (Rattus norvegicus, UniProt P19327); assay: 5-HT1A Binding (displacement of [3H] 8-OHDPAT)
T2 construct: following the procedure of Hall et al., J. Neurochem; 44, 1685 (1985); from tissue
T2 sequence (P19327 1-422): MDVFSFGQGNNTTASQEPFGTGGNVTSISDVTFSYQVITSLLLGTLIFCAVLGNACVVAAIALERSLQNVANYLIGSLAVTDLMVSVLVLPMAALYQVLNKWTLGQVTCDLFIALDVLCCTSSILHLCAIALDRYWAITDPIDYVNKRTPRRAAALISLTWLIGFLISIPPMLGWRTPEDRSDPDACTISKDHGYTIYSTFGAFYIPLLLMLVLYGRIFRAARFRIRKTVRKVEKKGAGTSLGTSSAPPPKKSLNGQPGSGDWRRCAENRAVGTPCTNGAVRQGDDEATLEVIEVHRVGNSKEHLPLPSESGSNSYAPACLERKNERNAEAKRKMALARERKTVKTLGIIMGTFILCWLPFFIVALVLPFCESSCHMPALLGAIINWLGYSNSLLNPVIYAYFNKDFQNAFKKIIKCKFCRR
Text: High affinity for the serotonin 5-HT1A receptor was established by testing the claimed compound's ability to displace [^3 H] 8-OHDPAT (dipropylaminotetralin) from the 5-HT1A serotonin receptor following the procedure of Hall et al., J. Neurochem. 44, 1685 (1985). […] The anxiolytic activity of buspirone is believed to be, at least partially, due to its 5-HT1A receptor affinity (Vander Maclen et al., Eur. J. Pharmacol. 1986, 129 (1-2) 133-130).

[2] = tested on: 5-HT1A serotonin receptor subtype; conditions: standard for anxiolytic activity; cited from earlier work

T1 sequence (P61169 whole entry): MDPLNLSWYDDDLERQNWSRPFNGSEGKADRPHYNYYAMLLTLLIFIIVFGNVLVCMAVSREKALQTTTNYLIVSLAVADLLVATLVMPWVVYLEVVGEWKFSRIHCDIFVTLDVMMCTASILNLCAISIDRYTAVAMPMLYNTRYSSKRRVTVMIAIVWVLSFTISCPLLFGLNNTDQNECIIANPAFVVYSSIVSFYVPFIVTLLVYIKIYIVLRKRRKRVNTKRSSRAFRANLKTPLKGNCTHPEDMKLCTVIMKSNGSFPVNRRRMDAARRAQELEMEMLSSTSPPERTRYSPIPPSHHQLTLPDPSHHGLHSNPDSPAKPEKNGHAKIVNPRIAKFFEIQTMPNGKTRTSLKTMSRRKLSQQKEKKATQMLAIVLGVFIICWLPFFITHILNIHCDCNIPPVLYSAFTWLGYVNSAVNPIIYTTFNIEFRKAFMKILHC

inhibition at 1 µM (dopamine D-2 receptor) | inhibition at 0.1 µM [1] | SMILES | also measured
97% | 96% | O=C1C2CC(C(=O)N1CC1CCN(CC3COc4ccccc4O3)CC1)C1C2C2C3CC4C2C4C31 (stereo not drawn) [Example 4, 3-[[1-[(2,3-Dihydro-1,4-benzodioxin-2-yl)methyl]-4-piperidinyl]methyl]decahydro-2H-1,5-methano-6,7,9-methenopentaleno[1,2-d]azepine-2,4(3H)-dione] | –
29% | 59% | O=C(NC1CCN(CC2COc3ccccc3O2)CC1)C12CC3CC(CC(C3)C1)C2 (stereo not drawn) [Example 1, N-[1-[(2,3-Dihydro-1,4-benzodioxin-2-yl)methyl]-4-piperidinyl]tricyclo[3.3.1.1^3,7]decane-1-carboxamide] | IC50 [1]: 107 nM
– | 45% | O=C1c2ccccc2S(=O)(=O)N1C1CCN(CC2COc3ccccc3O2)CC1 (stereo not drawn) [Example 3, 2-[1-[(2,3-Dihydro-1,4-benzodioxin-2-yl)methyl]-4-piperidinyl]-1,2-benzoisothiazol-3(2H)-one 1,1-dioxide] | –
52% | 92% | O=C(NCC1CCN(CC2COc3ccccc3O2)CC1)C12CC3CC(CC(C3)C1)C2 (stereo not drawn) [Example 5, N-[[1-[(2,3-Dihydro-1,4-benzodioxin-2-yl)methyl]-4-piperidinyl]methyl]tricyclo[3.3.1.1^3,7]decane-1-carboxamide] | –
– | 4% | O=C1C2C3C=CC(C4C=CC43)C2C(=O)N1C1CCN(CC2COc3ccccc3O2)CC1 (stereo not drawn) [Example 2, 3a, 4,4a, 6a, 7,7a-Hexahydro-2-[1-[(2,3-Dihydro-1,4-benzodioxin-2-yl)methyl]-4-piperidinyl]-4,7-etheno-1H-cyclobut[f]isoindole-1,3(2H)-dione] | –

Continued, compound first:

SMILES | inhibition at 1 µM (dopamine D-2 receptor) | inhibition at 0.1 µM [1] | also measured
O=C1CC2(CCCC2)CC(=O)N1CCCCNCC1COc2ccccc2O1 (single isomer, unassigned; (-)) [(-)-MDL 72832] | – | – | binding at the 5-HT1A receptor site relative to the dextrorotary isomer (5-HT1A receptor site; (-)-isomer vs dextrorotary isomer): 32 times
O=C1CC2(CCCC2)CC(=O)N1CCCCNCC1COc2ccccc2O1 (stereo not drawn) [MDL 72832, 8-[4-(1,4-benzodioxan-2-ylmethylamino)butyl]-8-azaspiro[4.5]decane-7,9-dione] | – | – | ligand selectivity for 5-HT1A receptors (5-HT1A receptor site; Fozard et al. 1987): selective and stereospecific
O=C1CC2(CCCC2)CC(=O)N1CCCCN1CCN(c2ncccn2)CC1 [buspirone] | – | – | affinity for the 5-HT1A serotonin receptor subtype [2]: potent affinity
